Tested on: proliferating neural precursor cells in the hippocampus (subgranular layer of the dentate gyrus)
Assay: standard in vivo hippocampal neurogenesis assay (BrdU labelling, week-long intracranial mini-pump infusion)
Set-up: species or system mouse (C57/B6)
Conditions: 10 μM concentration, seven days of infusion at 0.5 μL/hour, daily IP BrdU; four 12 week old adult male C57/B6 mice; vehicle 14.5
Protocol: Compounds were administered at a concentration of 10 μM for each molecule. After seven days of infusion at a constant rate of 0.5 μL/hour, a total of 84 μL of volume will have left the pump (0.00084 μMoles) and entered the cerebrospinal fluid. The average volume of a brain from a 12 week old male, C57/B6 mouse in the study is 500 mm^3. […] Under these conditions, at the end of one week of infusion each compound would be present at 1.7 μMolar concentration. Since the actual amount of chemical compound in the brain is likely to be only a fraction of this predicted level, it is reasonable to estimate that compounds were administered at mid to low-nanomolar concentrations.
During compound infusion, animals were intraperitoneally (IP) injected daily with the thymidine analog, bromodeoxyuridine (BrdU), as a means of scoring the birth and survival of proliferating neural precursor cells in the hippocampus. Because both social interaction and voluntary exercise are known to stimulate hippocampal neurogenesis, mice were housed individually without access to running wheels throughout the screening period. Following the week-long period of compound administration, animals were perfused and sacrificed. Dissected brain tissue was fixed, embedded, sectioned, stained with antibodies to BrdU, and evaluated by light microcopy as a means of quantifying neurogenesis and survival of newborn neural precursor cells localized to the subgranular layer of the dentate gyms on the brain hemisphere contralateral to the side of mini-pump cannulation. Every fifth section throughout the entire rostral-caudal extent of the hippocampus was analyzed, and the total number of BrdU+ cells was normalized against the measured volume of the dentate gyms.
Intracranial infusions of either fibroblast growth factor 2 (FGF-2) or artificial cerebral spinal fluid (aCSF) vehicle via the same, week-long protocol were employed as positive and negative controls.
Compounds were evaluated for pro-neurogenic efficacy/neuroprotection in a standard in vivo hippocampal neurogenesis assay at 10 μM concentration in four 12 week old adult male C57/B16 mice.

Structure (SMILES) | (×10^−06) BrdU+ cells/mm^3 dentate gyrus
NC(Cc1c[nH]c2ccc(Br)cc12)C(=O)O (racemic) [P7C3-S207, 5-bromo-DL-tryptophan, reference compound] | 32.4 (×10^−06) BrdU+ cells/mm^3
COc1cccc(NCC(O)CN2c3ccc(Br)cc3CCc3cc(Br)ccc32)c1 (centres unmarked) [P7C3-S76] | 28.3 (×10^−06) BrdU+ cells/mm^3
OC(CN1c2ccccc2CCc2ccccc21)Cn1ccc2ccccc21 (centres unmarked) [P7C3-S132, 1-(10,11-dihydro-5H-dibenzo[b,f]azepin-5-yl)-3-(1H-indol-1-yl)propan-2-ol] | 22.8 (×10^−06) BrdU+ cells/mm^3
OC(CN1c2ccccc2CCc2ccccc21)Cn1c2ccccc2c2ccccc21 (centres unmarked) [P7C3-S133, 1-(9H-carbazol-9-yl)-3-(10,11-dihydro-5H-dibenzo[b,f]azepin-5-yl)propan-2-ol] | 20.2 (×10^−06) BrdU+ cells/mm^3
OC(CSc1ccccc1)CN1c2ccccc2CCc2ccccc21 (centres unmarked) [P7C3-S134, 1-(10,11-dihydro-5H-dibenzo[b,f]azepin-5-yl)-3-(phenylthio)propan-2-ol] | 19.4 (×10^−06) BrdU+ cells/mm^3
OC(COc1ccccc1)CN1c2ccccc2CCc2ccccc21 (centres unmarked) [P7C3-S135, 1-(10,11-dihydro-5H-dibenzo[b,f]azepin-5-yl)-3-phenoxypropan-2-ol] | 14.2 (×10^−06) BrdU+ cells/mm^3
CN(C)CC(O)CN1c2ccccc2CCc2ccccc21 (centres unmarked) [P7C3-S139, 1-(10,11-dihydro-5H-dibenzo[b,f]azepin-5-yl)-3-(dimethylamino)propan-2-ol] | 24.9 (×10^−06) BrdU+ cells/mm^3
NCC(O)CN1c2ccccc2CCc2ccccc21 (centres unmarked) [P7C3-S140, 1-amino-3-(10,11-dihydro-5H-dibenzo[b,f]azepin-5-yl)propan-2-ol] | 23.4 (×10^−06) BrdU+ cells/mm^3
CNCC(O)CN1c2ccccc2CCc2ccccc21 (centres unmarked) [P7C3-S143, 1-(10,11-dihydro-5H-dibenzo[b,f]azepin-5-yl)-3-(methylamino)propan-2-ol] | 14.5 (×10^−06) BrdU+ cells/mm^3
CC(C)NCC(O)CN1c2ccccc2CCc2ccccc21 (centres unmarked) [P7C3-S144, 1-(10,11-dihydro-5H-dibenzo[b,f]azepin-5-yl)-3-(isopropylamino)propan-2-ol] | 18.1 (×10^−06) BrdU+ cells/mm^3
CC(C)(C)NCC(O)CN1c2ccccc2CCc2ccccc21 (centres unmarked) [P7C3-S145, 1-(tert-butylamino)-3-(10,11-dihydro-5H-dibenzo[b,f]azepin-5-yl)propan-2-ol] | 25 (×10^−06) BrdU+ cells/mm^3
CN(C)CC(F)CN1c2ccccc2CCc2ccccc21 (centres unmarked) [P7C3-S148, 3-(10,11-dihydro-5H-dibenzo[b,f]azepin-5-yl)-2-fluoro-N,N-dimethylpropan-1-amine] | 22.6 (×10^−06) BrdU+ cells/mm^3
CN(C)C(CF)CN1c2ccccc2CCc2ccccc21 (centres unmarked) [P7C3-S149, 1-(10,11-dihydro-5H-dibenzo[b,f]azepin-5-yl)-3-fluoro-N,N-dimethylpropan-2-amine] | 23.2 (×10^−06) BrdU+ cells/mm^3
CNCC(F)CN1c2ccccc2CCc2ccccc21 (centres unmarked) [P7C3-S152, 3-(10,11-dihydro-5H-dibenzo[b,f]azepin-5-yl)-2-fluoro-N-methylpropan-1-amine] | 26.8 (×10^−06) BrdU+ cells/mm^3
COc1cccc(NCC(O)CN2c3ccccc3CCc3ccccc32)c1 (centres unmarked) [P7C3-S158, 1-(10,11-dihydro-5H-dibenzo[b,f]azepin-5-yl)-3-((3-methoxyphenyl)amino)propan-2-ol] | 25 (×10^−06) BrdU+ cells/mm^3
Brc1ccc2[nH]c3ccc(Br)cc3c2c1 [P7C3-S162, 3,6-dibromo-9H-carbazole] | 25.2 (×10^−06) BrdU+ cells/mm^3
Cn1c2ccc(Br)cc2c2cc(Br)ccc21 [P7C3-S163, 3,6-dibromo-9-methyl-9H-carbazole] | 24.2 (×10^−06) BrdU+ cells/mm^3
CC(C)(O)Cn1c2ccc(Br)cc2c2cc(Br)ccc21 [P7C3-S169, 1-(3,6-dibromo-9H-carbazol-9-yl)-2-methylpropan-2-ol] | 18.4 (×10^−06) BrdU+ cells/mm^3
OC(CN1c2ccccc2CCc2ccccc21)CN1c2ccccc2CCc2ccccc21 [P7C3-S170, 1,3-bis(10,11-dihydro-5H-dibenzo[b,f]azepin-5-yl)propan-2-ol] | 22.4 (×10^−06) BrdU+ cells/mm^3
OCCn1c2ccc(Br)cc2c2cc(Br)ccc21 [P7C3-S171, 2-(3,6-dibromo-9H-carbazol-9-yl)ethanol] | 26.2 (×10^−06) BrdU+ cells/mm^3
OC(CNc1cccc2ccccc12)Cn1c(-c2ccccc2)cc2ccccc21 (centres unmarked) [P7C3-S185, 1-(naphthalen-1-ylamino)-3-(2-phenyl-1H-indol-1-yl)propan-2-ol] | 25.1 (×10^−06) BrdU+ cells/mm^3

Structure (SMILES) | (×10^−06) BrdU+ cells/mm^3 dentate gyrus
[N-]=[N+]=NCC(F)Cn1c2ccc(Br)cc2c2cc(Br)ccc21 (centres unmarked) [P7C3-S189, 9-(3-azido-2-fluoropropyl)-3,6-dibromo-9H-carbazole] | 13.7 (×10^−06) BrdU+ cells/mm^3
COc1ccc2[nH]cc(CCNC(C)=O)c2c1 [P7C3-S193, Melatonin, reference compound] | 15.6 (×10^−06) BrdU+ cells/mm^3
CCOC(=O)C1=C[C@]2(CC)CCCN3CCc4c(n1c1ccccc41)[C@@H]32 [P7C3-S199, Vinpocetine, reference compound] | 26.5 (×10^−06) BrdU+ cells/mm^3
CCC(C)N(C)C(=O)c1cc2ccccc2c(-c2ccccc2Cl)n1 (centres unmarked) [P7C3-S200, PK 11195, reference compound] | 22.1 (×10^−06) BrdU+ cells/mm^3
CCCCCCN(CCCCCC)C(=O)Cc1c(-c2ccc(F)cc2)[nH]c2ccccc12 [P7C3-S201, N,N-Dihexyl-2-(4-fluorophenyl)indole-3-acetamide, reference compound] | 24.8 (×10^−06) BrdU+ cells/mm^3
CN1C(=O)CN=C(c2ccc(Cl)cc2)c2cc(Cl)ccc21 [P7C3-S203, 4′-chlorodiazepam, reference compound] | 21.5 (×10^−06) BrdU+ cells/mm^3
O=C(O)c1cc2c(cn1)[nH]c1ccc(Br)cc12 [P7C3-S206, 6-bromo-9H-pyrido[3,4-b]indole-3-carboxylic acid] | 29.6 (×10^−06) BrdU+ cells/mm^3
COc1ccc2[nH]c3ccc(Br)cc3c2c1 [P7C3-S209, 3-bromo-6-methoxy-9H-carbazole] | 30 (×10^−06) BrdU+ cells/mm^3
O=C(O)CN1c2ccccc2CCc2ccccc21 [P7C3-S210, 2-(10,11-dihydro-5H-dibenzo[b,f]azepin-5-yl)acetic acid] | 21.4 (×10^−06) BrdU+ cells/mm^3
CC(C(=O)O)n1c2ccc(Br)cc2c2cc(Br)ccc21 (centres unmarked) [P7C3-S211, 2-(3,6-dibromo-9H-carbazol-9-yl)propanoic acid] | 23 (×10^−06) BrdU+ cells/mm^3
c1ccc2c(c1)CCc1ccccc1N2 [P7C3-S212, iminodibenzyl, reference compound] | 20.5 (×10^−06) BrdU+ cells/mm^3
N#Cc1ccc2[nH]c3ccc(Br)cc3c2c1 [P7C3-S216, 6-bromo-9H-carbazole-3-carbonitrile] | 25.9 (×10^−06) BrdU+ cells/mm^3
N#Cc1[nH]c2ccc(Br)cc2c1N [P7C3-S222, 3-amino-5-bromo-1H-indole-2-carbonitrile] | 30.1 (×10^−06) BrdU+ cells/mm^3
N#Cc1ccc2c(c1)c1cc(Br)ccc1n2CC(=O)O [P7C3-S224, 2-(3-bromo-6-cyano-9H-carbazol-9-yl)acetic acid] | 20.2 (×10^−06) BrdU+ cells/mm^3
O=C(O)c1ccc2[nH]c3ccc(Br)cc3c2c1 [P7C3-S225, 6-bromo-9H-carbazole-3-carboxylic acid] | 30.4 (×10^−06) BrdU+ cells/mm^3
O=C(O)Cn1c2ccc(Br)cc2c2cc(C(=O)O)ncc21 [P7C3-S227, 6-bromo-9-(carboxymethyl)-9H-pyrido[3,4-b]indole-3-carboxylic acid] | 25.8 (×10^−06) BrdU+ cells/mm^3
Cc1ccc2[nH]c3ccc(Br)cc3c2c1 [P7C3-S228, 3-bromo-6-methyl-9H-carbazole] | 40.3 (×10^−06) BrdU+ cells/mm^3
O=C(Cn1c2ccc(Br)cc2c2cc(Br)ccc21)NS(=O)(=O)c1ccccc1 [P7C3-S230, 2-(3,6-dibromo-9H-carbazol-9-yl)-N-(phenylsulfonyl)acetamide] | 30.5 (×10^−06) BrdU+ cells/mm^3
O=C(Cn1c2ccc(Br)cc2c2cc(Br)ccc21)NO [P7C3-S231, 2-(3,6-dibromo-9H-carbazol-9-yl)-N-hydroxyacetamide] | 26.1 (×10^−06) BrdU+ cells/mm^3
CS(=O)(=O)NC(=O)Cn1c2ccc(Br)cc2c2cc(Br)ccc21 [P7C3-S232, 2-(3,6-dibromo-9H-carbazol-9-yl)-N-(methylsulfonyl)acetamide] | 16.8 (×10^−06) BrdU+ cells/mm^3

Source: patent US9701676B2, “Pro-neurogenic compounds” (Board of Regents of The University of Texas System, priority 2012, dated 2017)
